Laboratory results: patent publication US20040038985A1, “Crystal forms of 1- [6-chloro-5-(trifluoromethly) -2-pyridinyl] piperazine hydrochloride” (priority 2000, published 2004)

Key:
[1] = Thermodynamic stability / interconversion of crystal forms of Org 12962; type: physicochemical; settings: solid crystal forms of Org 12962 compared
[2] = Stability of crystal forms A and B in admixture with excipients (HPLC content after storage); type: physicochemical; settings: for content of Org 12962 remaining after storage, percentage of the initial amount: 14 days
Procedure: To each aliquot an excipient mentioned in Table II was added, followed by 10 μl of water, after which the suspensions were thoroughly mixed.
Aliquots of Org 12962 (5-10 mg) in crystal form B (100% form B) were weighed into roundbottomed tubes. To each aliquot an excipient mentioned in Table II was added, followed by 100 μl of water. Glass beads (250-300 mg) were added to each tube, after which the samples were thoroughly mixed for 1 minute. The residual water was evaporated in vacuo at room temperature. The tubes were stored in the dark for 14 days at either 20° C. or at 60° C. The samples were dissolved in 20.0 ml of a 70:30 mixture of 25 mM phosphate pH 2.6 buffer and acetonitrile. Dissolution was effected by keeping the tubes in a sonifier for 20 minutes.
Quantitative analysis of the amount of Org 12962 per tube was done by high performance liquid chromatography (hplc) using either of the following validated methods: (1) using a Symmetry Shield Reverse Phase RP 18 column (150×4.6 mm), which was operated at 40° C., using a flow rate of 1.0 ml/min, and as eluent a 69:31 (v/v) mixture of 25 mM phosphate buffer pH 2.6 buffer, also containing 15 mM octanesulphonic acid, and acetonitrile, or (2) using a Lichrospher 60 RP Select B column (125×4.0 mm), which was operated at ambient temperature, using a flow rate of 1.5 ml/min, and as eluent a 55:45 (v/v) mixture of methanol and water, also containing 5 mM octanesulphonic acid. The content of Org 12962 remaining in the samples after storage is given in Table II as the percentage (%) of the initial amount.

[3] = admixture with Cornstarch (10 mg per 5.0 mg Org 12962), 20° C./dark
[4] = admixture with Cornstarch (10 mg per 5.0 mg Org 12962), 60° C./dark
[5] = admixture with HPC (2 mg per 5.0 mg Org 12962), 20° C./dark
[6] = admixture with HPMC (1.3 mg per 5.0 mg Org 12962), 20° C./dark
[7] = admixture with HPMC (1.3 mg per 5.0 mg Org 12962), 60° C./dark
[8] = admixture with Lactose (80 mg per 5.0 mg Org 12962), 20° C./dark
[9] = admixture with Lactose (80 mg per 5.0 mg Org 12962), 60° C./dark
[10] = admixture with Mg-stearate (0.5 mg per 5.0 mg Org 12962), 20° C./dark
[11] = admixture with Mg-stearate (0.5 mg per 5.0 mg Org 12962), 60° C./dark
[12] = admixture with PEG 400 (0.3 mg per 5.0 mg Org 12962), 20° C./dark
[13] = admixture with PEG 400 (0.3 mg per 5.0 mg Org 12962), 60° C./dark
[14] = admixture with Primojel (4 mg per 5.0 mg Org 12962), 20° C./dark
[15] = admixture with Primojel (4 mg per 5.0 mg Org 12962), 60° C./dark
[16] = admixture with Talc (0.3 mg per 5.0 mg Org 12962), 20° C./dark
[17] = admixture with Talc (0.3 mg per 5.0 mg Org 12962), 60° C./dark
[18] = admixture with Titanium dioxide (0.2 mg per 5.0 mg Org 12962), 20° C./dark
[19] = admixture with Titanium dioxide (0.2 mg per 5.0 mg Org 12962), 60° C./dark

SMILES: Cl.FC(F)(F)c1ccc(N2CCNCC2)nc1Cl [II, 1-[6-Chloro-5-(trifluoromethyl)-2-pyridinyl]piperazine.hydrochloride]
- thermodynamic stability of the crystal form ([1]; listed as crystal form B): thermodynamically most stable form
- content of Org 12962 remaining after storage, percentage of the initial amount [2, 3]: 100.1%
- content of Org 12962 remaining after storage, percentage of the initial amount [2, 4]: 97.9%
- content of Org 12962 remaining after storage, percentage of the initial amount [2, 5]: 100.0%
- content of Org 12962 remaining after storage, percentage of the initial amount ([2]; admixture with HPC (2 mg per 5.0 mg Org 12962), 60° C./dark): 96.5%
- content of Org 12962 remaining after storage, percentage of the initial amount [2, 6]: 100.0%
- content of Org 12962 remaining after storage, percentage of the initial amount [2, 7]: 97.8%
- content of Org 12962 remaining after storage, percentage of the initial amount [2, 8]: 99.6%
- content of Org 12962 remaining after storage, percentage of the initial amount [2, 9]: 97.4%
- content of Org 12962 remaining after storage, percentage of the initial amount [2, 10]: 99.9%
- content of Org 12962 remaining after storage, percentage of the initial amount [2, 11]: 97.9%
- content of Org 12962 remaining after storage, percentage of the initial amount [2, 12]: 99.8%
- content of Org 12962 remaining after storage, percentage of the initial amount [2, 13]: 96.3%
- content of Org 12962 remaining after storage, percentage of the initial amount [2, 14]: 100.0%
- content of Org 12962 remaining after storage, percentage of the initial amount [2, 15]: 96.0%
- content of Org 12962 remaining after storage, percentage of the initial amount [2, 16]: 99.9%
- content of Org 12962 remaining after storage, percentage of the initial amount [2, 17]: 100.1%
- content of Org 12962 remaining after storage, percentage of the initial amount [2, 18]: 99.8%
- content of Org 12962 remaining after storage, percentage of the initial amount [2, 19]: 92.9%
- stability in admixture with pharmaceutical excipients, compared with crystal form A ([2]; stored in the dark, especially notable at 60° C. with lactose and cornstarch): more stable

SMILES: Cl.FC(F)(F)c1ccc(N2CCNCC2)nc1Cl [form C, 1-[6-Chloro-5-(trifluoromethyl)-2-pyridinyl]piperazine.hydrochloride]
- thermodynamic stability of the crystal form [1]: spontaneously converts to form B, even at −20 °C

SMILES: Cl.FC(F)(F)c1ccc(N2CCNCC2)nc1Cl [I, 1-[6-Chloro-5-(trifluoromethyl)-2-pyridinyl]piperazine.hydrochloride]
- content of Org 12962 remaining after storage, percentage of the initial amount [2, 3]: 100.0%
- content of Org 12962 remaining after storage, percentage of the initial amount [2, 4]: 82.6%
- content of Org 12962 remaining after storage, percentage of the initial amount [2, 5]: 98.0%
- content of Org 12962 remaining after storage, percentage of the initial amount [2, 6]: 95.0%
- content of Org 12962 remaining after storage, percentage of the initial amount [2, 7]: 91.8%
- content of Org 12962 remaining after storage, percentage of the initial amount [2, 8]: 94.5%
- content of Org 12962 remaining after storage, percentage of the initial amount [2, 9]: 91.2%
- content of Org 12962 remaining after storage, percentage of the initial amount [2, 10]: 97.9%
- content of Org 12962 remaining after storage, percentage of the initial amount [2, 11]: 93.8%
- content of Org 12962 remaining after storage, percentage of the initial amount [2, 12]: 96.5%
- content of Org 12962 remaining after storage, percentage of the initial amount [2, 13]: 92.5%
- content of Org 12962 remaining after storage, percentage of the initial amount [2, 14]: 95.0%
- content of Org 12962 remaining after storage, percentage of the initial amount [2, 15]: 94.6%
- content of Org 12962 remaining after storage, percentage of the initial amount [2, 16]: 99.2%
- content of Org 12962 remaining after storage, percentage of the initial amount [2, 17]: 94.5%
- content of Org 12962 remaining after storage, percentage of the initial amount [2, 18]: 96.0%
- content of Org 12962 remaining after storage, percentage of the initial amount [2, 19]: 97.5%
